What all share (assay): Determination of fungal susceptibility (MIC, microdilution in CYG medium)
Holding throughout (type): cell-based

For one assay, the system named is Aspergillus fumigatus. The following applies: single isolate, 5 days at 30° C., growth (OD 405 nm) inhibited to 35% of control or less. The method, then: (§1) A panel single isolates of the dermatophytes Sporothrix schenckii; Microsporum canis; Trichophyton rubrum; Trichophyton mentagrophyte; Candida parapsilosis; Cryptococcus neoformans; and Aspergillus fumigatus were used to evaluate the activity of the test compounds in vitro. Inocula were prepared as broth cultures (yeasts) or as suspensions of fungal material made from agar slope cultures (moulds). The test compounds were pipetted from dimethylsulfoxide stock solution into water to provide a series of 10-fold dilutions. The fungal inocula were suspended in the growth medium CYG (F.C. Odds, Journal of Clinical Microbiology, 29, 2735-2740, 1991) at approximately 50,000 colony-forming units (CFU) per ml and added to the aqueous test drugs. The cultures were set up in the 96 wells of plastic microdilution plates and they were incubated for 2 days at 37° C. (Candida spp.) or for 5 days at 30° C. (other fungi). Growth in the microcultures was measured by their optical density (OD) measured at a wavelength of 405 nm. The OD for cultures with test compounds was calculated as a percentage of the OD for control cultures, i.e. the OD for cultures without test compounds. Inhibition of growth to 35% of control or less was recorded as significant inhibition. Minimal inhibitory concentration (MIC; in 10^−6 M) of some of the compounds of formula (I) for the tested species are listed in Table.

Another assay has as its system Candida parapsilosis. The following applies: single isolate, 2 days at 37° C., growth (OD 405 nm) inhibited to 35% of control or less. The method, then: as §1
The test system of a further assay is Cryptococcus neoformans. The following applies: single isolate, 5 days at 30° C., growth (OD 405 nm) inhibited to 35% of control or less. The method, then: as §1
Another assay has as its system Microsporum canis. The following applies: single isolate, 5 days at 30° C., growth (OD 405 nm) inhibited to 35% of control or less. The method, then:
as §1

The subject of another assay is Sporothrix schenckii. The following applies: single isolate, 5 days at 30° C., growth (OD 405 nm) inhibited to 35% of control or less. The method, then: as §1
Assay [1] relates to Trichophyton mentagrophytes. The following applies: single isolate, 5 days at 30° C., growth (OD 405 nm) inhibited to 35% of control or less. The method, then: as §1
The next assay concerns Trichophyton rubrum. The following applies: single isolate, 5 days at 30° C., growth (OD 405 nm) inhibited to 35% of control or less. The method, then: as §1

As for `Br.Cc1ccc(C2NCc3ccc(Cl)cc3-n3cccc32)cc1` (stereo not drawn) [Comp. 19], the “MIC values, Aspergillus fumigatus” value in the assay with Aspergillus fumigatus was >10 10^−6 M. Moreover, the “MIC values, Candida parapsilosis” value in the assay on Candida parapsilosis is listed as >10 10^−6 M. In addition, the “MIC values, Cryptococcus neoformans” value against Cryptococcus neoformans was >10 10^−6 M. For the same molecule, the “MIC values, Microsporum canis” value with Microsporum canis is recorded as 10 10^−6 M. Besides, in the assay on Sporothrix schenckii, the “MIC values, Sporothrix schenkii” value was >10 10^−6 M. For the same molecule, the “MIC values, Trichophyton mentagrophytes” value in assay [1] is 3.2 10^−6 M. Also, the “MIC values, Trichophyton rubrum” value against Trichophyton rubrum is recorded as 0.32 10^−6 M.
On to `Br.N#Cc1ccc(C2NCc3ccc(Cl)cc3-n3cccc32)cc1` (stereo not drawn) [Comp. 20], for which the “MIC values, Aspergillus fumigatus” value in the assay with Aspergillus fumigatus is >10 10^−6 M. Further, the “MIC values, Candida parapsilosis” value against Candida parapsilosis was >10 10^−6 M. In the assay with Cryptococcus neoformans, the “MIC values, Cryptococcus neoformans” value is reported as >10 10^−6 M. For the same molecule, in the assay on Microsporum canis, the “MIC values, Microsporum canis” value is given as >10 10^−6 M. Also, the “MIC values, Sporothrix schenkii” value against Sporothrix schenckii is listed as >10 10^−6 M. The “MIC values, Trichophyton mentagrophytes” value in assay [1] was >10 10^−6 M. The “MIC values, Trichophyton rubrum” value with Trichophyton rubrum is listed as 0.32 10^−6 M.
Turning to `CCc1ccc(C2=NCc3ccccc3-n3cccc32)cc1` [Comp. 21], the “MIC values, Aspergillus fumigatus” value with Aspergillus fumigatus is 1 10^−6 M. The “MIC values, Candida parapsilosis” value against Candida parapsilosis is 3.2 10^−6 M. For the same molecule, in the assay on Cryptococcus neoformans, the “MIC values, Cryptococcus neoformans” value is >10 10^−6 M. Moreover, in the assay on Microsporum canis, the “MIC values, Microsporum canis” value is given as 0.32 10^−6 M. For the same molecule, the “MIC values, Sporothrix schenkii” value in the assay with Sporothrix schenckii was 10 10^−6 M. Further, in assay [1], the “MIC values, Trichophyton mentagrophytes” value was 0.32 10^−6 M. Also, in the assay with Trichophyton rubrum, the “MIC values, Trichophyton rubrum” value was 0.03 10^−6 M.

(Values after patent US7820650B2, “Antifungal 4-substituted 5,6-dihydro-4H-pyrrolo [1,2-a][1,4]benzodiazepines” (Janssen Pharmaceutica NV, priority 2000, dated 2010).)
